In patent US10111822B2, “External dermal composition for anti-ageing and method for producing the same” (Hayashibara Co., Ltd., priority 2012, dated 2018):

Assays:
cornified envelope (CE) = test: Production of cornified envelope (CE) in NHEK cells; assay type: cell-based, human; conditions: 1 mM, 5 days, control 0.63 ± 0.07
Experimental: The following experiment was conducted to examine the effect of ascorbic acid 2-glucoside on the production of CE in a keratinous layer. As a model for typical normal human epidermal cells, normal human epidermal keratinocytes from neonatal foreskin, commercialized by Kurabo Industries Ltd., Osaka, Japan, and abbreviated as “NHEK cells”, hereinafter, were suspended in EpiLife medium (pH 7.4), commercialized by Invitrogen Corporation, Calif., USA, and called “EpiLife medium”, hereinafter, inoculated to 12-well microplates at a cell density of 1×10^5 cells/well, and cultured under the conditions of 37° C. and 5% v/v CO2 overnight. Thereafter, “AA2G”, a product name of a particulate composition containing anhydrous crystalline ascorbic acid 2-glucoside, commercialized by Hayashibara Co., Ltd., Okayama, Japan, was added to each well to give a final concentration of 0.5 or 1 mM, or, as a positive control, CaCl2 was added to each well to give a final concentration of 1 mM; and the cells in each well were cultured at 37° C. for five days while replacing the medium in each well with a fresh preparation of EpiLife medium having the above-identified concentration of ascorbic acid 2-glucoside or CaCl2. Assay for intracellular CE content was carried out in accordance with Tatsuya Hasegawa et al., “Lipids”, Vol. 46, pp. 529 to 535, 2011. After completion of the culture, the culture supernatant in each well was immediately removed, followed by detaching and extracting the cells adhered to the wall of each well by means of pipetting with phosphate buffered saline (PBS, pH 7.4) containing 2% w/v sodium dodecyl sulfate (SDS), and collecting insoluble fractions by centrifugation at 15,000 rpm for 10 min. […] The measured values were regarded as CE production levels. […]

ZO-1 = test: TJ-related protein ZO-1 in NHEK cells (Western); assay type: cell-based, human; conditions: 1 mM, 3 days, CaCl2 positive control = 100%, no addition 38%
Experimental: (§1) The following experiment was conducted to examine the effect of ascorbic acid 2-glucoside on the production of TJ-related proteins that constitute cell-cell adhesion structures by focusing on occludin and ZO-1 that are focused on as TJ-related proteins known to exist in a granular layer of epidermis: As a model for typical normal human epidermal cells, NHEK cells were suspended in EpiLife medium (pH 7.4); inoculated to 12-well microplates at a cell density of 1×10^5 cells/well; cultured overnight under the conditions of 37° C. and 5% v/v CO2; and further cultured for three days under the conditions of 37° C. and 5% v/v CO2 after adding either CaCl2 as a positive control to each well to give a final concentration of 0.5 mM, or “AA2G”, a product name of a particulate composition containing anhydrous crystalline ascorbic acid 2-glucoside, commercialized by Hayashibara Co., Ltd., Okayama, Japan, to give a final concentration of 0.5 or 1 mM. […] A sample of 20 μg protein for each lane per each cell extract in respective wells was applied to sodium dodecyl sulfate polyacrylamide gel electrophoresis (SDS-PAGE) with 10% w/v SDS containing DTT, followed by assaying the concentration of occludin or ZO-1 in each cell extract with “Luminate Western HRP Substrates”, a product name of a premixed, ready-to-use chemiluminescent detection reagent using an internal standard “α-Tubulin”, commercialized by Merck KGaA, Darmstadt, Germany, wherein there were used “F-11”, a product name of an anti-occludin mouse monoclonal antibody, commercialized by Santa Cruz Biotechnology, Inc., Texas, USA, or “ZO1-1A12”, a product name of a ZO-1 mouse monoclonal antibody, commercialized by Invitrogen Corporation, Calif., USA, was used as a first antibody; and “PO447”, a product name of a horseradish peroxidase (HRPO) labeled anti-mouse IgG, commercialized by DAKO Japan Inc., Tokyo, Japan, or “PO448”, a product name of an HRPO-labeled anti-rabbit IgG, commercialized by DAKO Japan Inc., Tokyo, Japan, as a secondary antibody. […]

occludin = test: TJ-related protein occludin in NHEK cells (Western); assay type: cell-based, human; conditions: 1 mM, 3 days, CaCl2 positive control = 100%, no addition 63%
Experimental: as §1

B16 cells = test: Cytotoxicity in B16 cell culture; assay type: cell-based, mouse; conditions: D-MEM medium, 2.0 mM, 2 h
glutathione [1] = test: Production level of glutathione in A431 cells; assay type: cell-based, human; conditions: 0.1 mM, 24 h, control = 100%
Experimental: To Dulbecco's MEM medium, containing 10% v/v calf fetal serum and an antibiotic (abbreviated as “D-MEM”, hereinafter), were added ascorbic acid 2-glucoside, a reagent grade specimen commercialized by Hayashibara Co., Ltd., Okayama, Japan, or L-ascorbic acid, a special reagent grade specimen commercialized by Wako Pure Chemical Industries, Ltd., Tokyo, Japan, […]
Continuously-cultivated A431 cells in D-MEM medium were collected, resuspended in D-MEM medium, inoculated to culture plates with 10 cm in diameter (φ) in an amount of 1×10^6 cells/10 mL/plate, and cultured for 24 hours. Thereafter, the culture supernatants were removed by sucking, and the remaining cells were added with any of the test solutions in an amount of 10 mL/plate and cultured for another 24 hours. As a control, cells were added with only D-MEM medium in an amount of 10 mL/plate and cultured for 24 hours. To each plate, which had been removed its culture supernatant, was added ice-chilled Dulbecco's PBS (−) commercialized by Nissui Pharmaceutical Co., Ltd., Tokyo, Japan, to wash cells, which were then collected with a scraper. Glutathione was quantified with “Glutathione Assay Kit”, a commercially available glutathione assay kit commercialized by BioVision, Inc., San Francisco, USA. In this experiment, the control and test solutions were respectively assayed by using three plates respectively, and the data were averaged for obtaining a glutathione production level for each plate. A5% v/v CO2 incubator was used for culturing A431 cells in any case. Relative values of test samples were determined with the proviso that the production levels of reduced glutathione and total glutathione levels in A431 cells that had been cultured with only D-MEM medium were respectively regarded as 100%, and the results are in Table 4.

NHEK cells = test: Cytotoxicity in NHEK cell culture; assay type: cell-based, human; conditions: EpiLife medium, 24 h
A431 cells = test: Cytotoxicity in A431 cell culture; assay type: cell-based, human; conditions: D-MEM medium, 24 h
glutathione [2] = test: Production level of glutathione in NHEK cells; assay type: cell-based, human; conditions: 0.1 mM, 24 h, control = 100%
Experimental: Continuously-cultivated NHEK cells in EpiLife medium were collected, resuspended in EpiLife medium, inoculated to culture plates with 10 cm in diameter in an amount of 1×10^6 cells/10 mL/plate, and cultured for 24 hours. Thereafter, each culture supernatant was removed by sucking, and any of the test solutions was added to the remaining cells in a volume of 10 mL/plate, followed by culturing the cells for another 24 hours. As a control, cells were added with only D-MEM medium in an amount of 10 mL/plate and cultured for 24 hours. Each culture supernatant was removed from each plate, then ice-chilled Dulbecco's PBS (−), commercialized by Nissui Pharmaceutical Co., Ltd., Tokyo, Japan, was added to rinse the remaining cells, which were then collected with a scraper. Glutathione was quantified on “Glutathione Assay Kit”, a product name of glutathione assay kit commercialzied by BioVision, Inc., San Francisco, USA. In this experiment, the control and test solutions in respective three plates were assayed for glutathione production level for each plate and averaged for obtaining the glutathione production level of each solution. A 5% v/v CO2 incubator was used for culturing NHEK cells in any case. Relative values of test samples were determined with the proviso that the production levels of reduced glutathione and total glutathione in NHEK cells that had been cultured with only EpiLife medium were respectively regarded as 100%, and the results are in Table 5.

| Structure (SMILES) | OD310nm Value (CE Production level) (cornified envelope (CE)) | ZO-1 Concentration in cell extract (ZO-1) | Occludin concentration in cell extract (occludin) | cytotoxicity (B16 cells) | Reduced glutathione (glutathione [1]) | Total glutathione (glutathione [1]) | cytotoxicity (NHEK cells; 0.5 mM) | upper limit concentration that does not induce cytotoxicity (NHEK cells) | cytotoxicity (A431 cells; 1.0 mM) | upper limit concentration that does not induce cytotoxicity (A431 cells) | Reduced glutathione (glutathione [2]) | Total glutathione (glutathione [2]) |
| --- | --- | --- | --- | --- | --- | --- | --- | --- | --- | --- | --- | --- |
| [Ca+2].[Cl-].[Cl-] [CaCl2, reference compound] | 1.07 ± 0.07 | 100% | 100% | – | – | – | – | – | – | – | – | – |
| O=C1O[C@H]([C@@H](O)CO)C(O)=C1O [L-ascorbic acid] | – | – | – | induced cytotoxicity | 103% | 102% | cytotoxicity induced | 0.1 mM | cytotoxicity was induced | 0.1 mM | 102% | 103% |
